Here are results for 20 compounds from publication PMC10384246, “Discovery of New Uracil and Thiouracil Derivatives as Potential HDAC Inhibitors” (Pharmaceuticals, 2023).

Series [1] has as its system MCF-7 (human breast cancer cell line). Put plainly: MTT anti-proliferative assay, MCF-7. The settings on record: MCF7, MCF-7, mean of at least three experiments, read-out: Cytotoxicity IC50 MCF-7. The class given is cell-based. The procedure:
(§1) Sorafenib was used as a reference drug.
(§2) Anti-proliferative activity activities were tested using MTT assay as described in Supplementary Materials. […]
(§3) S2.1. In vitro anti-proliferative activities
(§4) The in vitro antiproliferative activities of all the synthesized compounds against three human tumor cell lines namely, MCF-7 (human breast cancer cell line), HepG2 (human liver […]
(§5) in the literature, using MTT assay protocol. Sorafenib was used in this test as a positive control.
(§6) The anti-proliferative activity was assessed quantitatively as follows.
(§7) Human cancer cell lines were seeded in 96-well plates at a density of 3-8 × 10^3 cells/well.
(§8) Next, the cells were incubated for 12 h in a 5% CO2 incubator at 37 °C. Then, for each well, the growth medium was exchanged with 0.1 ml of fresh medium containing graded concentrations of the test compounds or equal DMSO. Then 10 μl MTT solution ([…]) was added to each well, and the cells were incubated for additional 4 h. The crystals of MTT-formazan were dissolved in 100 μl of DMSO; the absorbance of each well was measured at 490 nm using an automatic ELISA reader system (TECAN, CHE). The IC50 values were calculated using the nonlinear regression fitting models (Graph Pad, Prism Version 5). The data represented the mean of three independent experiments in triplicate and were expressed as means ± SD. The IC50 value was […]
(§9) defined as the concentration at which 50% of the cells could survive. […]

The test system of series [2] is HepG2 (human liver carcinoma cell line). As to the kind of experiment: MTT anti-proliferative assay, HepG2. The class given is cell-based. The settings on record: HepG2, mean of at least three experiments, read-out: Cytotoxicity IC50 HepG-2. The procedure:
as §1, §2, §3, §4, §5, §6, §7, §8, §9

The test system of series [3] is colorectal carcinoma (HCT-116). Put plainly: MTT anti-proliferative assay, HCT-116. The class given is cell-based. The settings on record: Homo sapiens, HCT-116, read-out: Cytotoxicity IC50 HCT-116. The procedure:
as §1, §2, §3, §4, §5, §6, §7, §8, §9

Series [4] concerns the target HDAC1 (Homo sapiens, UniProt Q13547). As to the kind of experiment: In vitro HDAC1 inhibitory assay. Format: biochemical.
Series [5] addresses HDAC4 (Homo sapiens, UniProt P56524). As to the kind of experiment: In vitro HDAC4 inhibitory assay. Format: biochemical.

The structures appear in SMILES notation. Several values for one entry are separate records, joined by “and”; a condition that tells them apart may be missing. Identical values can stand only once.

Chain of HDAC4 (P56524 whole entry): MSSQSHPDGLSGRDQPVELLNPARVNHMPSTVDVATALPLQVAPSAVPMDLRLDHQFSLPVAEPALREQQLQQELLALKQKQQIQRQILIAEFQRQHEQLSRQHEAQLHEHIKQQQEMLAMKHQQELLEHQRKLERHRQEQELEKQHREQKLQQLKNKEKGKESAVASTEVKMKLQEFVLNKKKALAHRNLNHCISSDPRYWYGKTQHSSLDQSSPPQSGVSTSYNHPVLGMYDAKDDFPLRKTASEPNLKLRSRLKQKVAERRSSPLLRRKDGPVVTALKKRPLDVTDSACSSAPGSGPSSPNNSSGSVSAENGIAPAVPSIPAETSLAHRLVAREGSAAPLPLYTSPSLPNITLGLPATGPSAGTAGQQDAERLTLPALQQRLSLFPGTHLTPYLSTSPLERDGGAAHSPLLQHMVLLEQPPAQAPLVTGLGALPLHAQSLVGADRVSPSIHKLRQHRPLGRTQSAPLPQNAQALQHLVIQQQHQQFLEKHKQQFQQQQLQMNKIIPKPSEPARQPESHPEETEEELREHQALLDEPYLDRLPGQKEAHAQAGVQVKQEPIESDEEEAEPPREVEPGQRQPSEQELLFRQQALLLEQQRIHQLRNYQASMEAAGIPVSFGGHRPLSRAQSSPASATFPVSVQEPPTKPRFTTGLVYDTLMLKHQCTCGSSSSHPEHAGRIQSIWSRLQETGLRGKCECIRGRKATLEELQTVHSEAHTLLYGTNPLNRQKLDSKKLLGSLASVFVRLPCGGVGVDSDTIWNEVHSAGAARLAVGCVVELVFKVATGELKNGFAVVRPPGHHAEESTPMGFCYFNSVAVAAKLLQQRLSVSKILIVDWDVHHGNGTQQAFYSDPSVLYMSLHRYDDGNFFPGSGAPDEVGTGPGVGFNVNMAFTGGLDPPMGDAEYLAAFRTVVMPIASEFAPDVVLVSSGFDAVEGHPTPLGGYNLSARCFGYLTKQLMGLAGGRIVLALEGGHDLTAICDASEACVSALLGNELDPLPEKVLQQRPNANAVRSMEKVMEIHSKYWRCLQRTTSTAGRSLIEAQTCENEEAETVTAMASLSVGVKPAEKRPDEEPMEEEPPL
Chain of HDAC1 (Q13547 whole entry): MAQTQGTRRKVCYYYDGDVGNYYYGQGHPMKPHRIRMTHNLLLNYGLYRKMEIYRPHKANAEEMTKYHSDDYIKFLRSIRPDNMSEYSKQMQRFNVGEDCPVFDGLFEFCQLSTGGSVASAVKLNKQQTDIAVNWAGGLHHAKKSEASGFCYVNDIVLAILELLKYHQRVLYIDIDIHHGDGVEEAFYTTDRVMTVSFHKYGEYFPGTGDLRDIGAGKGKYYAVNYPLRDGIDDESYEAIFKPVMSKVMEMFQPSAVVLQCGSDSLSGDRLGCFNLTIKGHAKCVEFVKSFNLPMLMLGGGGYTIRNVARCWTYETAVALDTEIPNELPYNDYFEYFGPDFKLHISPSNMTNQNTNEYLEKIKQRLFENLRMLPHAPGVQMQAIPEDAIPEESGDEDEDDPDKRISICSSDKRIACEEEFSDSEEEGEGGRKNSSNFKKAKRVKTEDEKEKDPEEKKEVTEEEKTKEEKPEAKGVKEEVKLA

`CCCn1c2c(c(=O)[nH]c1=O)C(c1ccc(OC)cc1)c1c(n(CCC)c(=O)[nH]c1=O)N2` [Compound 6c, 5-(4-Methoxyphenyl)-1,9-dipropyl-5,10-dihydropyrido[2,3-d:6,5-d′]dipyrimidine-2,4,6,8(1H,3H,7H,9H)-tetraone] displayed a melting point of 180 to 181 °C. Moreover, in series [1], the IC50 turned out to be 435 ± 4.3 µM. In addition, the 50% inhibitory concentration (IC50) in series [2] is 114 ± 2.2 µM. In series [3], the IC50 was determined as 466 ± 4.6 µM.
In turn, `CCn1c2c(c(=O)[nH]c1=S)C(c1ccccc1)c1c(n(CC)c(=S)[nH]c1=O)N2` [Compound 6a, 1,9-Diethyl-5-phenyl-2,8-dithioxo-2,3,5,8,9,10-hexahydropyrido[2,3-d:6,5-d′]dipyrimidine-4,6(1H,7H)-dione] had a melting point of 255 to 256 °C. Besides, in series [1], the half-inhibitory concentration (IC50) came to 333 ± 2.9 µM. In series [2], the IC50 stood at 220 ± 3 µM. Moreover, the IC50 in series [3] amounted to 291 ± 3.5 µM.
As for `CCCn1c2c(c(=O)[nH]c1=O)Cc1c(n(CCC)c(=O)[nH]c1=O)N2` [Compound 6d, 1,9-Dipropyl-5,10-dihydropyrido[2,3-d:6,5-d′]dipyrimidine-2,4,6,8 (1H,3H,7H,9H)-tetraone], the IC50 in series [1] worked out at 413 ± 1.3 µM; in series [2], 168 ± 1.5 µM; in series [3], 361 ± 2 µM.
Take `CCn1c(N)c(C(c2ccc(C)cc2)c2c(N)n(CC)c(=S)[nH]c2=O)c(=O)[nH]c1=S` [Compound 5b, 5,5′-(p-Tolylmethylene)bis(6-amino-1-ethyl-2-thioxo-2,3-dihydropyrimidin-4(1H)-one)]: the melting point is 239 to 240 °C. Also, in series [1], the IC50 was found to be 55 ± 2.8 µM. Further, the IC50 in series [2] came to 51 ± 4 µM. Besides, the IC50 in series [3] is 21 ± 2.4 µM. The IC50 in series [4] was 2.27 µM. Moreover, in series [5], the IC50 is 18 µM.
For `CCn1c(=S)[nH]c(=O)c2c(-c3ccc(Cl)cc3)c3c(=O)[nH]c(=S)n(CC)c3nc21` [Compound 7a, 5-(4-Chlorophenyl)-1,9-diethyl-2,8-dithioxo-2,3,8,9-tetrahydropyrido[2,3-d:6,5-d′]dipyrimidine-4,6(1H,7H)-dione], the melting point lay in the range of 224 to 225 °C. Moreover, the IC50 in series [1] was 472 ± 3.2 µM. The IC50 in series [2] came out at 189 ± 4.8 µM. In series [3], the IC50 was found to be 361 ± 1.9 µM.
On to `CCCn1c(N)c(Cc2c(N)n(CCC)c(=O)[nH]c2=O)c(=O)[nH]c1=O` [Compound 5h, 5,5′-Methylenebis(6-amino-1-propylpyrimidine-2,4(1H,3H)-dione)], for which the IC50 was 88 ± 2.5 µM in series [1], 52 ± 3.2 µM in series [2] and 91 ± 1.9 µM in series [3].
As for `CCn1c(N)c(C(c2ccc(Cl)cc2)c2c(N)n(CC)c(=S)[nH]c2=O)c(=O)[nH]c1=S` [Compound 5c, 5,5′-((4-Chlorophenyl)methylene)bis(6-amino-1-ethyl-2-thioxo-2,3-dihydropyrimidin-4(1H)-one)], the melting point was above 300 °C. Moreover, the 50% inhibitory concentration (IC50) in series [1] was found to be 77 ± 2.3 µM. Also, in series [2], the IC50 was 89 ± 2.4 µM. Besides, in series [3], the IC50 worked out at 97 ± 1.2 µM.
For the compound `CCn1c(=S)[nH]c(=O)c2c(-c3cccs3)c3c(=O)[nH]c(=S)n(CC)c3nc21` [Compound 7c, 1,9-Diethyl-5-(thiophen-2-yl)-2,8-dithioxo-2,3,8,9-tetrahydropyrido[2,3-d:6,5-d′]dipyrimidine-4,6(1H,7H)-dione], the melting point is 216 to 217 °C. Further, in series [1], the IC50 worked out at 450 ± 2.2 µM. The IC50 in series [2] stood at 221 ± 2.5 µM. Moreover, the IC50 in series [3] came to 243 ± 2.2 µM.
For `CCn1c(N)c(C(c2ccccc2)c2c(N)n(CC)c(=S)[nH]c2=O)c(=O)[nH]c1=S` [Compound 5a, 5,5′-(Phenylmethylene)bis(6-amino-1-ethyl-2-thioxo-2,3-dihydropyrimidin-4(1H)-one)], the melting point is above 300 °C. The IC50 in series [1] came to 11 ± 1.6 µM. Also, the IC50 in series [2] was 39 ± 2.5 µM. In series [3], the half-inhibitory concentration (IC50) turned out to be 88 ± 2.4 µM. Further, in series [4], the IC50 was 3.11 µM. The compound further had an IC50 in series [5] of 12.2 µM.
`CCn1c(=S)[nH]c(=O)c2c(-c3ccc(OC)cc3)c3c(=O)[nH]c(=S)n(CC)c3nc21` [Compound 7b, 1,9-Diethyl-5-(4-methoxyphenyl)-2,8-dithioxo-2,3,8,9-tetrahydropyrido[2,3-d:6,5-d′]dipyrimidine-4,6(1H,7H)-dione] returned a melting point of 221 °C. Further, in series [1], the IC50 is 871 ± 3.2 µM. The IC50 in series [2] is 173 ± 4.5 µM. In addition, in series [3], the IC50 stood at 301 ± 3.4 µM.
`CCCn1c(N)c(C(c2ccc(OC)cc2)c2c(N)n(CCC)c(=O)[nH]c2=O)c(=O)[nH]c1=O` [Compound 5l, 5,5′-((4-Methoxyphenyl)methylene)bis(6-amino-1-propylpyrimidine-2,4(1H,3H)-dione)] showed a melting point of 289 to 290 °C. The IC50 in series [1] was 381 ± 1.5 µM. In series [2], the IC50 turned out to be 31 ± 2 µM. In series [3], the IC50 amounted to 83 ± 1.9 µM.
On to `CCn1c(N)c(C(c2ccc([N+](=O)[O-])cc2)c2c(N)n(CC)c(=S)[nH]c2=O)c(=O)[nH]c1=S` [Compound 5f, 5,5′-((4-Nitrophenyl)methylene)bis(6-amino-1-ethyl-2-thioxo-2,3-dihydropyrimidin-4(1H)-one)], for which the melting point lay within 274 to 275 °C. Besides, the concentration for half-maximal inhibition (IC50) in series [1] came out at 9.3 ± 3.4 µM. Further, the concentration for half-maximal inhibition (IC50) in series [2] worked out at 49 ± 0.17 µM. Also, in series [3], the IC50 is 71 ± 2.1 µM. This compound showed an IC50 in series [4] of 4 µM. In series [5], the IC50 is 12.2 µM.
Turning to `CCn1c(N)c(C(c2ccc(Cl)cc2Cl)c2c(N)n(CC)c(=S)[nH]c2=O)c(=O)[nH]c1=S` [Compound 5d, 5,5′-((2,4-Dichlorophenyl)methylene)bis(6-amino-1-ethyl-2-thioxo-2,3-dihydropyrimidin-4(1H)-one)], the melting point was 272 to 273 °C. In series [1], the half-maximal inhibitory concentration (IC50) amounted to 62 ± 2.1 µM. In addition, in series [2], the IC50 turned out to be 40 ± 2.7 µM. In series [3], the IC50 was 281 ± 2.1 µM.
As for `CCn1c(N)c(C(c2cccs2)c2c(N)n(CC)c(=S)[nH]c2=O)c(=O)[nH]c1=S` [Compound 5g, 5,5′-(Thiophen-2-ylmethylene)bis(6-amino-1-ethyl-2-thioxo-2,3-dihydropyrimidin-4(1H)-one)], the melting point is 271 to 272 °C. Also, in series [1], the half-maximal inhibitory concentration (IC50) is 21 ± 2.2 µM. Moreover, in series [2], the IC50 came to 33 ± 3.8 µM. Also, the IC50 in series [3] came to 68 ± 1.8 µM.
`CCCn1c(N)c(C(c2ccc(Cl)cc2Cl)c2c(N)n(CCC)c(=O)[nH]c2=O)c(=O)[nH]c1=O` [Compound 5k, 5,5′-((2,4-Dichlorophenyl)methylene)bis(6-amino-1-propylpyrimidine-2,4(1H,3H)-dione)] had a melting point of 285 to 286 °C. Also, the IC50 in series [1] was determined as 242 ± 2 µM. In addition, the IC50 in series [2] is 5 ± 2 µM. In addition, the 50% inhibitory concentration (IC50) in series [3] stood at 80 ± 2.6 µM. The compound also showed an IC50 in series [4] of 0.464 µM. In series [5], this compound gave an IC50 of 13 µM.
Consider `CCCn1c(N)c(C(c2ccccc2)c2c(N)n(CCC)c(=O)[nH]c2=O)c(=O)[nH]c1=O` [Compound 5i, 5,5′-(Phenylmethylene)bis(6-amino-1-propylpyrimidine-2,4(1H,3H)-dione)], for which the melting point lay in the range of 294 to 295 °C. In addition, the IC50 in series [1] was 261 ± 2.5 µM. Moreover, the IC50 in series [2] turned out to be 4 ± 1 µM. Besides, the 50% inhibitory concentration (IC50) in series [3] came out at 64 ± 2.1 µM. Further, the IC50 in series [4] is 0.342 µM and 0.352 µM. It took 19.5 µM to reach half-maximal inhibition in series [5] (IC50).
Consider `CNC(=O)c1cc(Oc2ccc(NC(=O)Nc3ccc(Cl)c(C(F)(F)F)c3)cc2)ccn1` [Sorafenib, reference compound], for which the IC50 amounted to 141 ± 3 µM in series [1], 17 ± 2.3 µM in series [2] and 177 ± 0.9 µM in series [3].
Turning to `CCn1c2c(c(=O)[nH]c1=S)C(c1ccc([N+](=O)[O-])cc1)c1c(n(CC)c(=S)[nH]c1=O)N2` [Compound 6b, 1,9-Diethyl-5-(4-nitrophenyl)-2,8-dithioxo-2,3,5,8,9,10-hexahydropyrido[2,3-d:6,5-d′]dipyrimidine-4,6(1H,7H)-dione], the melting point fell in the range of 251 to 252 °C. The IC50 in series [1] was 577 ± 20 µM. Further, the IC50 in series [2] worked out at 184 ± 3.7 µM. Further, the IC50 in series [3] was found to be 299 ± 2 µM.
For `CCn1c(N)c(C(c2ccc(OC)cc2)c2c(N)n(CC)c(=S)[nH]c2=O)c(=O)[nH]c1=S` [Compound 5e, 5,5′-((4-Methoxyphenyl)methylene)bis(6-amino-1-ethyl-2-thioxo-2,3-dihydropyrimidin-4(1H)-one)], the melting point was 260 to 261 °C. The IC50 in series [1] came out at 60 ± 0.49 µM. For the same compound, the IC50 in series [2] came out at 42 ± 2 µM. In addition, the half-maximal inhibitory concentration (IC50) in series [3] is 90 ± 3 µM.
For `CCCn1c(N)c(C(c2ccc(C)cc2)c2c(N)n(CCC)c(=O)[nH]c2=O)c(=O)[nH]c1=O` [Compound 5j, 5,5′-(p-Tolylmethylene)bis(6-amino-1-propylpyrimidine-2,4(1H,3H)-dione)], in that order: 286 to 287 °C, 71 ± 2 µM, 38 ± 1.8 µM and 400 ± 2.4 µM.
